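At the GI50, growth is halved. The concentration for full growth arrest is given as TGI.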
What was measured:
Assay in all cases: NCI-60 cell line screen, 384-well format
NCI-H226 lung = tested on: NCI-H226 lung
NCI-H23 lung = tested on: NCI-H23 lung
LOX IMVI melanoma = tested on: LOX IMVI melanoma
OVCAR-3 ovarian = tested on: OVCAR-3 ovarian
UACC-257 melanoma = tested on: UACC-257 melanoma
SF-539 CNS = tested on: SF-539 CNS
UACC-62 melanoma = tested on: UACC-62 melanoma
PC-3 prostate = tested on: PC-3 prostate
HS 578T breast = tested on: HS 578T breast
MDA-MB-468 breast = tested on: MDA-MB-468 breast
KM12 colon = tested on: KM12 colon
HL-60(TB) leukemia = tested on: HL-60(TB) leukemia
HOP-62 NSCLC = tested on: HOP-62 NSCLC
CAKI-1 renal = tested on: CAKI-1 renal
M14 melanoma = tested on: M14 melanoma
NCI/ADR-RES ovarian = tested on: NCI/ADR-RES ovarian
NCI-H522 lung = tested on: NCI-H522 lung
COLO 205 colon = tested on: COLO 205 colon
NCI-H322M lung = tested on: NCI-H322M lung
SF-268 CNS = tested on: SF-268 CNS
CCRF-CEM leukemia = tested on: CCRF-CEM leukemia
EKVX NSCLC = tested on: EKVX NSCLC
RPMI-8226 leukemia = tested on: RPMI-8226 leukemia
SK-MEL-28 melanoma = tested on: SK-MEL-28 melanoma
K-562 leukemia = tested on: K-562 leukemia
HT29 colon = tested on: HT29 colon
MDA-MB-435 melanoma = tested on: MDA-MB-435 melanoma
SK-MEL-5 melanoma = tested on: SK-MEL-5 melanoma
MDA-MB-231 breast = tested on: MDA-MB-231 breast
TK-10 renal = tested on: TK-10 renal
MCF7 breast = tested on: MCF7 breast
IGROV1 ovarian = tested on: IGROV1 ovarian
A549 NSCLC = tested on: A549 NSCLC
SW-620 colon = tested on: SW-620 colon
OVCAR-8 ovarian = tested on: OVCAR-8 ovarian
SF-295 CNS = tested on: SF-295 CNS
DU-145 prostate = tested on: DU-145 prostate
HCT-15 colon = tested on: HCT-15 colon
786-0 renal = tested on: 786-0 renal
SN12C renal = tested on: SN12C renal
SNB-19 CNS = tested on: SNB-19 CNS
SR leukemia = tested on: SR leukemia
UO-31 renal = tested on: UO-31 renal
SK-OV-3 ovarian = tested on: SK-OV-3 ovarian
SNB-75 CNS = tested on: SNB-75 CNS
A498 renal = tested on: A498 renal
MALME-3M melanoma = tested on: MALME-3M melanoma
HOP-92 NSCLC = tested on: HOP-92 NSCLC
OVCAR-5 ovarian = tested on: OVCAR-5 ovarian
MOLT-4 leukemia = tested on: MOLT-4 leukemia
ACHN renal = tested on: ACHN renal
OVCAR-4 ovarian = tested on: OVCAR-4 ovarian
RXF 393 renal = tested on: RXF 393 renal
NCI-H460 NSCLC = tested on: NCI-H460 NSCLC
BT-549 breast = tested on: BT-549 breast
HCC-2998 colon = tested on: HCC-2998 colon
T-47D breast = tested on: T-47D breast

CCN(CC)CCCC(C)Nc1c2ccc(Cl)cc2nc2ccc(OC)cc12 (centres undefined)
GI50 (NCI-H226 lung): 1330 nM | TGI (NCI-H226 lung): 2800 nM | GI50 (NCI-H23 lung): 1600 nM | TGI (NCI-H23 lung): 2960 nM | GI50 (LOX IMVI melanoma): 1390 nM | TGI (LOX IMVI melanoma): 2700 nM | GI50 (OVCAR-3 ovarian): 1760 nM | TGI (OVCAR-3 ovarian): 3360 nM | GI50 (UACC-257 melanoma): 1890 nM | TGI (UACC-257 melanoma): 3300 nM | GI50 (SF-539 CNS): 1120 nM | TGI (SF-539 CNS): 2330 nM | GI50 (UACC-62 melanoma): 1690 nM | TGI (UACC-62 melanoma): 3060 nM | GI50 (PC-3 prostate): 1780 nM | TGI (PC-3 prostate): 3380 nM | GI50 (HS 578T breast): 1710 nM | TGI (HS 578T breast): 3080 nM | GI50 (MDA-MB-468 breast): 322 nM | TGI (MDA-MB-468 breast): 1230 nM | GI50 (KM12 colon): 1370 nM | TGI (KM12 colon): 3130 nM | GI50 (HL-60(TB) leukemia): 1640 nM | TGI (HL-60(TB) leukemia): 3000 nM | GI50 (HOP-62 NSCLC): 1100 nM | TGI (HOP-62 NSCLC): 2440 nM | GI50 (CAKI-1 renal): 1370 nM | TGI (CAKI-1 renal): 2740 nM | GI50 (M14 melanoma): 1790 nM | TGI (M14 melanoma): 3180 nM | GI50 (NCI/ADR-RES ovarian): 1550 nM | TGI (NCI/ADR-RES ovarian): 2940 nM | GI50 (NCI-H522 lung): 1470 nM | TGI (NCI-H522 lung): 2800 nM | GI50 (COLO 205 colon): 1310 nM | TGI (COLO 205 colon): 2600 nM | GI50 (NCI-H322M lung): 1290 nM | TGI (NCI-H322M lung): 2630 nM | GI50 (SF-268 CNS): 1640 nM | TGI (SF-268 CNS): 3060 nM | GI50 (CCRF-CEM leukemia): 609 nM | TGI (CCRF-CEM leukemia): 1660 nM | GI50 (EKVX NSCLC): 1330 nM | TGI (EKVX NSCLC): 2820 nM | GI50 (RPMI-8226 leukemia): 1490 nM | TGI (RPMI-8226 leukemia): 2810 nM | GI50 (SK-MEL-28 melanoma): 1870 nM | TGI (SK-MEL-28 melanoma): 3270 nM | GI50 (K-562 leukemia): 1080 nM | TGI (K-562 leukemia): 2290 nM | GI50 (HT29 colon): 1330 nM | TGI (HT29 colon): 2630 nM | GI50 (MDA-MB-435 melanoma): 1750 nM | TGI (MDA-MB-435 melanoma): 3140 nM | GI50 (SK-MEL-5 melanoma): 1960 nM | TGI (SK-MEL-5 melanoma): 3380 nM | GI50 (MDA-MB-231 breast): 1180 nM | TGI (MDA-MB-231 breast): 2560 nM | GI50 (TK-10 renal): 1950 nM | TGI (TK-10 renal): 3690 nM | GI50 (MCF7 breast): 1410 nM | TGI (MCF7 breast): 3200 nM | GI50 (IGROV1 ovarian): 1890 nM | TGI (IGROV1 ovarian): 3720 nM | GI50 (A549 NSCLC): 1510 nM | TGI (A549 NSCLC): 2910 nM | GI50 (SW-620 colon): 1390 nM | TGI (SW-620 colon): 2940 nM | GI50 (OVCAR-8 ovarian): 1070 nM | TGI (OVCAR-8 ovarian): 2260 nM | GI50 (SF-295 CNS): 1740 nM | TGI (SF-295 CNS): 3140 nM | GI50 (DU-145 prostate): 1720 nM | TGI (DU-145 prostate): 3530 nM | GI50 (HCT-15 colon): 1060 nM | TGI (HCT-15 colon): 2300 nM | GI50 ([…]-0 renal): 1180 nM | TGI (786-0 renal): 2440 nM | GI50 (SN12C renal): 1410 nM | TGI (SN12C renal): 2860 nM | GI50 (SNB-19 CNS): 1940 nM | TGI (SNB-19 CNS): 4030 nM | GI50 (SR leukemia): 401 nM | TGI (SR leukemia): 1320 nM | GI50 (UO-31 renal): 1850 nM | TGI (UO-31 renal): 3730 nM | GI50 (SK-OV-3 ovarian): 1200 nM | TGI (SK-OV-3 ovarian): 2700 nM | GI50 (SNB-75 CNS): 1330 nM | TGI (SNB-75 CNS): 2610 nM | GI50 (A498 renal): 880 nM | TGI (A498 renal): 2110 nM | GI50 (MALME-3M melanoma): 1600 nM | TGI (MALME-3M melanoma): 2950 nM | GI50 (HOP-92 NSCLC): 520 nM | TGI (HOP-92 NSCLC): 1820 nM | GI50 (OVCAR-5 ovarian): 1920 nM | TGI (OVCAR-5 ovarian): 4160 nM | GI50 (MOLT-4 leukemia): 212 nM | TGI (MOLT-4 leukemia): 357 nM | GI50 (ACHN renal): 1040 nM | TGI (ACHN renal): 2440 nM | GI50 (OVCAR-4 ovarian): 1550 nM | TGI (OVCAR-4 ovarian): 2920 nM | GI50 (RXF 393 renal): 668 nM | TGI (RXF 393 renal): 1980 nM | GI50 (NCI-H460 NSCLC): 1100 nM | TGI (NCI-H460 NSCLC): 2310 nM | GI50 (BT-549 breast): 1500 nM | TGI (BT-549 breast): 2840 nM | GI50 (HCC-2998 colon): 985 nM | TGI (HCC-2998 colon): 2150 nM | GI50 (T-47D breast): 1640 nM | TGI (T-47D breast): 3070 nM
